Laboratory results published in US11759462B2, “Spirocyclic compounds as tryptophan hydroxylase inhibitors” (priority 2013, dated 2023).
Several values for one entry are separate records, joined by “and”; a condition that tells them apart may be missing. Equal entries are not always repeated.

target: T1, Recombinant human TPH1 (MBP tagged) (Homo sapiens, UniProt P17752); assay: TPH1 in vitro inhibition assay (kinetic fluorescence); type: biochemical; settings: read-out: TPH1 Range (TPH1 inhibition IC50)
T1 construct: cloning full length human TPH1 cDNA in to a bacterial pMAL-c5E expression vector; made in house; host or cells: E. coli BL21 (DE3)
T1 sequence (P17752 1-444): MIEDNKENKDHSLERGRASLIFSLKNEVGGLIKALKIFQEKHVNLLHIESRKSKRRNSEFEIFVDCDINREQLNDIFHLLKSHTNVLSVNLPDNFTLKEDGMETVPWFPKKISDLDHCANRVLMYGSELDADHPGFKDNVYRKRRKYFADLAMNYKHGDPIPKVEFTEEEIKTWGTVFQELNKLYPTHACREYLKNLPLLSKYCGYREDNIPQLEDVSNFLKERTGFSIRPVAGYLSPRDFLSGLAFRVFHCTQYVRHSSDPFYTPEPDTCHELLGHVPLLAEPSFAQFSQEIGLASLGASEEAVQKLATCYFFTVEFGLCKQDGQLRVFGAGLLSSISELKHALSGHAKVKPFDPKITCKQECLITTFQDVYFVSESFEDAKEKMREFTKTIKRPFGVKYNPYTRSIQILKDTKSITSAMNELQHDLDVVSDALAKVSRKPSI
Excerpt: Recombinant human TPH1 (rTPH1 GenBank™ accession no. NP_004179) was expressed by cloning full length human TPH1 cDNA in to a bacterial pMAL-c5E expression vector to produce maltose-binding protein (MBP) TPH1 fusion proteins. E. coli BL21 (DE3) containing pMAL-c5E-TPH1 was used for protein generation and the recombinant protein was purified utilizing standard column chromatography techniques. The MBP tagged TPH1 (MBP-TPH1) was used directly to screen compounds as described below. Recombinant human TPH2 (rTPH2 GenBank™ accession no. 173353), PheOH (rPheOH GenBank™ accession no. K03020) and TH (rTH GenBank™ accession no. L20679) with an MBP tag were produced similarly.
TPH1 activities were measured in an assay containing 200 mM ammonium sulfate, 7 mM DTT, 50 μg/mL catalase, 25 μM ammonium iron sulfate, 50 mM MES, pH 7.1. Test compounds were diluted in 100% DMSO and added to the assay plate in 1 μL aliquots at 100× final concentration. Fifty microliters of assay buffer containing 30 nM TPH1 enzyme (MBP tagged) were added to the plate wells containing the test compound by the use of an Eppendorf repeater pipette. The reaction was initiated by the addition of 50 μL of assay buffer containing 60 μM tryptophan and 72 μM 6-6-methyltetra-hydropterin (2× final concentration) by the use of a Multidrop (LabSystems). Final reaction conditions were 15 nM TPH1 enzyme, 30 μM tryptophan, 36 μM 6-methyltetra-hydropterin, 200 mM ammonium sulfate, 7 mM DTT, […], 25 μM ferrous ammonium sulfate, 50 mM MES, pH 7.1, with atmospheric oxygen at room temperature. The plate was immediately placed onto an M5 plate reader (Molecular Devices) for kinetic fluorescence measurement using an excitation setting of 300 nm and an emission setting of 335 nm. Fluorescence reads are recorded in kinetic mode for 300 seconds (5 minutes).
Kinetic assay data for compounds at specific concentrations was translated into slopes using the Softmax Pro software on a Spectramax reader, and compound inhibition slopes were compared with wells containing enzyme, substrate and cofactor in the absence of inhibitor (100%), and wells containing substrate and cofactor in the absence of enzyme (0%). DMSO concentration in the assay was 1%. […] IC50's were determined using Graphpad Prism.

| SMILES | IC50 |
| --- | --- |
| Cc1ccn(-c2cc(-c3ccc(F)c(Cl)c3)ccc2[C@@H](Oc2cc(N3CCC4(CC3)CN[C@H](C(=O)O)C4)nc(N)n2)C(F)(F)F)n1 [Example 1ar, (S)-8-(2-amino-6-((R)-1-(3′-chloro-4′-fluoro-3-(3-methyl-1H-pyrazol-1-yl)-[1,1′-biphenyl]-4-yl)-2,2,2-trifluoroethoxy)pyrimidin-4-yl)-2,8-diazaspiro[4.5]decane-3-carboxylic acid] | 50 to 300 nM |
| Cc1ccn(-c2cc(-c3ccc(F)c(F)c3)ccc2[C@@H](Oc2cc(N3CCC4(CC3)CN[C@H](C(=O)O)C4)nc(N)n2)C(F)(F)F)n1 [Example 1au, (S)-8-(2-amino-6-((R)-1-(3′,4′-difluoro-3-(3-methyl-1H-pyrazol-1-yl)-[1,1′-biphenyl]-4-yl)-2,2,2-trifluoroethoxy)pyrimidin-4-yl)-2,8-diazaspiro[4.5]decane-3-carboxylic acid] | 50 to 300 nM |
| Cc1ccn(-c2cc(-c3ccc(F)c(C(F)(F)F)c3)ccc2[C@@H](Oc2cc(N3CCC4(CC3)CN[C@H](C(=O)O)C4)nc(N)n2)C(F)(F)F)n1 [Example 1aw, (S)-8-(2-amino-6-((R)-2,2,2-trifluoro-1-(4′-fluoro-3-(3-methyl-1H-pyrazol-1-yl)-3′-(trifluoromethyl)-[1,1′-biphenyl]-4-yl)ethoxy)pyrimidin-4-yl)-2,8-diazaspiro[4.5]decane-3-carboxylic acid] | 50 to 300 nM |
| CCOc1cc(F)cc(-c2ccc([C@@H](Oc3cc(N4CCC5(CC4)CN[C@H](C(=O)O)C5)nc(N)n3)C(F)(F)F)c(-n3ccc(C)n3)c2)c1 [Example 1ay, (S)-8-(2-amino-6-((R)-1-(3′-ethoxy-5′-fluoro-3-(3-methyl-1H-pyrazol-1-yl)-[1,1′-biphenyl]-4-yl)-2,2,2-trifluoroethoxy)pyrimidin-4-yl)-2,8-diazaspiro[4.5]decane-3-carboxylic acid] | < 50 nM and 50 to 300 nM |
| Cc1ccn(-c2cc(-c3cccc(C(C)(C)C)c3)ccc2[C@@H](Oc2cc(N3CCC4(CC3)CN[C@H](C(=O)O)C4)nc(N)n2)C(F)(F)F)n1 [Example 1az, (S)-8-(2-amino-6-((R)-1-(3′-(tert-butyl)-3-(3-methyl-1H-pyrazol-1-yl)-[1,1′-biphenyl]-4-yl)-2,2,2-trifluoroethoxy)pyrimidin-4-yl)-2,8-diazaspiro[4.5]decane-3-carboxylic acid] | 50 to 300 nM |
| Cc1ccn(-c2cc(-c3cccc(OC(C)C)c3)ccc2[C@@H](Oc2cc(N3CCC4(CC3)CN[C@H](C(=O)O)C4)nc(N)n2)C(F)(F)F)n1 [Example 1bc, (S)-8-(2-amino-6-((R)-2,2,2-trifluoro-1-(3′-isopropoxy-3-(3-methyl-1H-pyrazol-1-yl)-[1,1′-biphenyl]-4-yl)ethoxy)pyrimidin-4-yl)-2,8-diazaspiro[4.5]decane-3-carboxylic acid] | < 50 nM |
| Cc1ccn(-c2cc(-c3ccc(Cl)c(C)c3)ccc2[C@@H](Oc2cc(N3CCC4(CC3)CN[C@H](C(=O)O)C4)nc(N)n2)C(F)(F)F)n1 [Example 1bd, (S)-8-(2-amino-6-((R)-1-(4′-chloro-3′-methyl-3-(3-methyl-1H-pyrazol-1-yl)-[1,1′-biphenyl]-4-yl)-2,2,2-trifluoroethoxy)pyrimidin-4-yl)-2,8-diazaspiro[4.5]decane-3-carboxylic acid] | < 50 nM |
| Cc1ccn(-c2cc(-c3cccc(C(N)=O)c3)ccc2[C@@H](Oc2cc(N3CCC4(CC3)CN[C@H](C(=O)O)C4)nc(N)n2)C(F)(F)F)n1 [Example 1be, (S)-8-(2-amino-6-((R)-1-(3′-carbamoyl-3-(3-methyl-1H-pyrazol-1-yl)-[1,1′-biphenyl]-4-yl)-2,2,2-trifluoroethoxy)pyrimidin-4-yl)-2,8-diazaspiro[4.5]decane-3-carboxylic acid] | 50 to 300 nM |
| Cc1ccn(-c2cc(-c3cc(C(F)(F)F)cc(C(F)(F)F)c3)ccc2[C@@H](Oc2cc(N3CCC4(CC3)CN[C@H](C(=O)O)C4)nc(N)n2)C(F)(F)F)n1 [Example 1bf, (S)-8-(2-amino-6-((R)-2,2,2-trifluoro-1-(3-(3-methyl-1H-pyrazol-1-yl)-3′,5′-bis(trifluoromethyl)-[1,1′-biphenyl]-4-yl)ethoxy)pyrimidin-4-yl)-2,8-diazaspiro[4.5]decane-3-carboxylic acid] | 50 to 300 nM |
| CCOc1cc(-c2ccc([C@@H](Oc3cc(N4CCC5(CC4)CN[C@H](C(=O)O)C5)nc(N)n3)C(F)(F)F)c(-n3ccc(C)n3)c2)ccc1F [Example 1bg, (S)-8-(2-amino-6-((R)-1-(3′-ethoxy-4′-fluoro-3-(3-methyl-1H-pyrazol-1-yl)-[1,1′-biphenyl]-4-yl)-2,2,2-trifluoroethoxy)pyrimidin-4-yl)-2,8-diazaspiro[4.5]decane-3-carboxylic acid] | < 50 nM |
| Cc1ccn(-c2cc(-c3cc(C)c(Cl)c(C)c3)ccc2[C@@H](Oc2cc(N3CCC4(CC3)CN[C@H](C(=O)O)C4)nc(N)n2)C(F)(F)F)n1 [Example 1bh, (S)-8-(2-amino-6-((R)-1-(4′-chloro-3′,5′-dimethyl-3-(3-methyl-1H-pyrazol-1-yl)-[1,1′-biphenyl]-4-yl)-2,2,2-trifluoroethoxy)pyrimidin-4-yl)-2,8-diazaspiro[4.5]decane-3-carboxylic acid] | < 50 nM |

Continued, values first:

| IC50 | SMILES |
| --- | --- |
| < 50 nM | Cc1ccn(-c2cc(-c3cccc(OC(F)(F)F)c3)ccc2[C@@H](Oc2cc(N3CCC4(CC3)CN[C@H](C(=O)O)C4)nc(N)n2)C(F)(F)F)n1 [Example 1as, (S)-8-(2-amino-6-((R)-2,2,2-trifluoro-1-(3-(3-methyl-1H-pyrazol-1-yl)-3'-(trifluoromethoxy)-[1,1′-biphenyl]-4-yl)ethoxy)pyrimidin-4-yl)-2,8-diazaspiro[4.5]decane-3-carboxylic acid] |
| < 50 nM | Cc1cc(C)cc(-c2ccc([C@@H](Oc3cc(N4CCC5(CC4)CN[C@H](C(=O)O)C5)nc(N)n3)C(F)(F)F)c(-n3ccc(C)n3)c2)c1 [Example 1at, (S)-8-(2-amino-6-((R)-1-(3′,5′-dimethyl-3-(3-methyl-1H-pyrazol-1-yl)-[1,1′-biphenyl]-4-yl)-2,2,2-trifluoroethoxy)pyrimidin-4-yl)-2,8-diazaspiro[4.5]decane-3-carboxylic acid] |
| < 50 nM | Cc1ccn(-c2cc(-c3ccc(OC(C)C)c(F)c3)ccc2[C@@H](Oc2cc(N3CCC4(CC3)CN[C@H](C(=O)O)C4)nc(N)n2)C(F)(F)F)n1 [Example 1ax, (S)-8-(2-amino-6-((R)-2,2,2-trifluoro-1-(3′-fluoro-4′-isopropoxy-3-(3-methyl-1H-pyrazol-1-yl)-[1,1′-biphenyl]-4-yl)ethoxy)pyrimidin-4-yl)-2,8-diazaspiro[4.5]decane-3-carboxylic acid] |
| < 50 nM | CSc1ccc(-c2ccc([C@@H](Oc3cc(N4CCC5(CC4)CN[C@H](C(=O)O)C5)nc(N)n3)C(F)(F)F)c(-n3ccc(C)n3)c2)cc1 [Example 1b, (S)-8-(2-amino-6-((R)-2,2,2-trifluoro-1-(3-(3-methyl-1H-pyrazol-1-yl)-4′-(methylthio)-[1,1′-biphenyl]-4-yl)ethoxy)pyrimidin-4-yl)-2,8-diazaspiro[4.5]decane-3-carboxylic acid] |
| < 50 nM | Cc1ccn(-c2cc(-c3ccc(F)c(C)c3)ccc2[C@@H](Oc2cc(N3CCC4(CC3)CN[C@H](C(=O)O)C4)nc(N)n2)C(F)(F)F)n1 [Example 1ba, (S)-8-(2-amino-6-((R)-2,2,2-trifluoro-1-(4′-fluoro-3′-methyl-3-(3-methyl-1H-pyrazol-1-yl)-[1,1′-biphenyl]-4-yl)ethoxy)pyrimidin-4-yl)-2,8-diazaspiro[4.5]decane-3-carboxylic acid] |
| < 50 nM | Cc1ccn(-c2cc(-c3cccc(C(C)C)c3)ccc2[C@@H](Oc2cc(N3CCC4(CC3)CN[C@H](C(=O)O)C4)nc(N)n2)C(F)(F)F)n1 [Example 1bb, (S)-8-(2-amino-6-((R)-2,2,2-trifluoro-1-(3′-isopropyl-3-(3-methyl-1H-pyrazol-1-yl)-[1,1′-biphenyl]-4-yl)ethoxy)pyrimidin-4-yl)-2,8-diazaspiro[4.5]decane-3-carboxylic acid] |
